The subject of this experiment is MDA-MB-231 breast cancer cells. The experiment can be described thus: In vitro antitumor activity against breast cancer cell line MDA-MB-231. It is filed as cell-based. Particulars: Homo sapiens, MDA-MB-231, read-out: IC50 (μM) MDA-MB-231.

Take `Cn1c(CCCC(=O)O)nc2cc(N(CCCl)CCCl)ccc21` [Bendamustiune, bendamustine]: the IC50 (in general, the concentration needed to halve the response being measured) was 13.3 µM.

For the origin of these results see article PMC9635984 (Bioorganic & medicinal chemistry letters, 2022).
